Assay results as given in PubChem BioAssay (NCI).
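These data come from cells grown in 96-well plates and exposed to compound for 48 hours at five concentrations. At the GI50, growth is halved. TGI is the concentration that stops growth completely.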

Assays:
Assay in all cases: inhibition of tumour cell growth, NCI panel, 48 h
[1] = system: SR leukemia
[2] = system: NCI-H23 lung
[3] = system: UACC-62 melanoma
[4] = system: EKVX NSCLC
[5] = system: SK-MEL-2 melanoma
[6] = system: SF-268 CNS
[7] = system: OVCAR-4 ovarian
[8] = system: PC-3 prostate
[9] = system: SNB-75 CNS
[10] = system: NCI-H460 lung

SMILES: CCCC(=O)NC(Nc1cc(C)ccn1)(C(=O)OCC)C(F)(F)F (stereo not drawn)
- TGI [1]: > 100 µM
- TGI [2]: > 100 µM
- TGI [3]: > 100 µM
- TGI [4]: > 100 µM
- TGI [5]: > 100 µM
- TGI [6]: > 100 µM
- TGI [7]: > 100 µM
- TGI [8]: > 100 µM
- TGI [9]: > 100 µM

SMILES: COc1ccccc1C1C(Cl)C(=O)N1n1cnc2ccccc2c1=O (stereo not drawn)
- TGI [1]: > 100 µM
- TGI [10]: > 100 µM
- TGI [2]: > 100 µM
- TGI [3]: > 100 µM
- TGI [4]: > 100 µM
- TGI [5]: > 100 µM
- TGI [6]: > 100 µM
- TGI [7]: > 100 µM
- TGI [9]: > 100 µM

SMILES: O=C(CC(CC(=O)Oc1c(Br)cc(Br)cc1C(=O)O)C(=O)Oc1c(Br)cc(Br)cc1C(=O)O)Oc1c(Br)cc(Br)cc1C(=O)O
- TGI [10]: > 100 µM
- TGI [2]: > 100 µM
- TGI [3]: > 100 µM
- TGI [4]: > 100 µM
- TGI [5]: > 100 µM
- TGI [6]: > 100 µM
- TGI [7]: > 100 µM
- TGI [9]: 93.3 µM

SMILES: C=C(C)C(=O)O[C@H]1CC2=C[C@@H](C[C@@]3(C)O[C@@H]3[C@H]3OC(=O)C(=C)[C@@H]31)OC2=O
- TGI [10]: 10.6 µM
- TGI [2]: 6.59 µM
- TGI [3]: 7.61 µM
- TGI [4]: 4.82 µM
- TGI [5]: 8.81 µM
- GI50 [6]: 0.34 µM
- TGI [6]: 2.56 µM
- TGI [7]: 6.48 µM
- TGI [9]: 18.4 µM

SMILES: CCOP(=O)(C=C=C1CCC2[C@@H]3CCc4cc(OC)ccc4C3CC[C@]12C)OCC (stereo partly drawn)
- TGI [10]: 27.6 µM
- TGI [2]: 20.8 µM
- TGI [3]: 18.2 µM
- TGI [4]: 21.9 µM
- TGI [5]: 26.5 µM
- TGI [6]: 28 µM
- TGI [7]: 21.3 µM
- TGI [8]: 15 µM
- TGI [9]: 25.5 µM

SMILES: NC(CSCc1ccc(I)cc1)C(=O)O (stereo not drawn)
- TGI [10]: > 100 µM
- TGI [2]: > 100 µM
- TGI [3]: > 100 µM
- TGI [4]: > 100 µM
- TGI [5]: > 100 µM
- TGI [6]: > 100 µM
- TGI [7]: > 100 µM
- TGI [8]: > 100 µM
- TGI [9]: > 100 µM

SMILES: c1ccc2c(c1)NCCC(=NC1CCCCC1)N2
- TGI [10]: > 100 µM
- TGI [2]: > 100 µM
- TGI [3]: > 100 µM
- TGI [4]: > 100 µM
- TGI [5]: > 100 µM
- TGI [6]: > 100 µM
- TGI [7]: > 100 µM
- TGI [8]: > 100 µM
- TGI [9]: > 100 µM

SMILES: Clc1ccc(Nc2nnc(CCCCCCCCc3nnc(Nc4ccc(Cl)cc4)o3)o2)cc1
- TGI [10]: > 100 µM
- TGI [2]: 90.6 µM
- TGI [3]: 78.4 µM
- TGI [4]: > 100 µM
- TGI [5]: > 100 µM
- TGI [7]: > 100 µM
- TGI [8]: > 100 µM
- TGI [9]: > 100 µM

SMILES: CC(C)C1OC(N)=C(C#N)C1(C#N)C#N (stereo not drawn)
- TGI [2]: > 100 µM
- TGI [3]: > 100 µM
- TGI [4]: > 100 µM
- TGI [5]: > 100 µM
- TGI [6]: > 100 µM
- TGI [8]: > 100 µM
- TGI [9]: > 100 µM

SMILES: O=C(c1cc2ccccc2[nH]1)N1C2CCC1CN(CCOC(c1ccc(F)cc1)c1ccc(F)cc1)CC2 (stereo not drawn)
- TGI [10]: > 100 µM
- TGI [2]: > 100 µM
- TGI [3]: > 100 µM
- TGI [4]: > 100 µM
- TGI [5]: > 100 µM
- TGI [6]: > 100 µM
- TGI [7]: > 100 µM
- TGI [8]: > 100 µM
- TGI [9]: > 100 µM

SMILES: C=CCNC(=S)N=Nc1c(O)n(CN2CCOCC2)c2ccc([N+](=O)[O-])cc12
- TGI [10]: > 100 µM
- TGI [2]: > 100 µM
- TGI [3]: > 100 µM
- TGI [4]: > 100 µM
- TGI [5]: > 100 µM
- TGI [6]: > 100 µM
- TGI [7]: > 100 µM
- TGI [8]: > 100 µM
- TGI [9]: 88.3 µM

SMILES: CCCCCC1CC=CC(=O)O1 (stereo not drawn)
- TGI [1]: 31.6 µM
- TGI [10]: 33.6 µM
- TGI [2]: 43 µM
- TGI [3]: 25.3 µM
- TGI [4]: 20.6 µM
- TGI [5]: 23.5 µM
- TGI [6]: 40.8 µM
- TGI [7]: 13.8 µM
- TGI [8]: 26.3 µM

SMILES: CC(C)(C)OC(=O)N[C@H]1CC(O)c2ccccc2N(CC(=O)O)C1=O (stereo partly drawn)
- TGI [1]: > 100 µM
- TGI [10]: > 100 µM
- TGI [2]: > 100 µM
- TGI [3]: > 100 µM
- TGI [4]: > 100 µM
- TGI [5]: > 100 µM
- TGI [6]: > 100 µM
- TGI [7]: > 100 µM
- TGI [9]: > 100 µM

SMILES: Cc1nc2c(c(=O)[nH]1)S/C(=C(/C#N)c1nc3ccccc3[nH]1)N2c1ccccc1
- TGI [1]: > 100 µM
- TGI [10]: > 100 µM
- TGI [2]: > 100 µM
- TGI [3]: > 100 µM
- TGI [4]: > 100 µM
- TGI [5]: > 100 µM
- TGI [6]: > 100 µM
- TGI [7]: > 100 µM
- TGI [9]: > 100 µM

SMILES: Nc1ccccc1Nc1ccccc1C(=O)[O-].Nc1ccccc1Nc1ccccc1C(=O)[O-].[Zn+2]
- TGI [10]: > 100 µM
- TGI [2]: > 100 µM
- TGI [3]: 68.2 µM
- TGI [4]: > 100 µM
- TGI [5]: 43.2 µM
- TGI [6]: > 100 µM
- TGI [9]: 49.1 µM

SMILES: CCOc1ccc2nc3nc(=O)[nH]c(C)c3c(NCCCN(CC)CC)c2c1
- TGI [10]: > 100 µM
- TGI [2]: > 100 µM
- TGI [3]: > 100 µM
- TGI [4]: > 100 µM
- TGI [5]: > 100 µM
- TGI [6]: > 100 µM
- TGI [7]: > 100 µM
- TGI [8]: > 100 µM
- TGI [9]: > 100 µM

SMILES: CCN1CCCC(C#N)(c2ccccc2)CC1 (stereo not drawn)
- TGI [1]: > 100 µM
- TGI [10]: > 100 µM
- TGI [2]: > 100 µM
- TGI [4]: > 100 µM
- TGI [6]: > 100 µM
- TGI [7]: > 100 µM
- TGI [8]: > 100 µM
- TGI [9]: > 100 µM

SMILES: c1cnn(C23C4C5C6C4C2C6C53)c1 (stereo not drawn)
- TGI [1]: > 100 µM
- TGI [10]: > 100 µM
- TGI [2]: > 100 µM
- TGI [4]: > 100 µM
- TGI [5]: > 100 µM
- TGI [6]: > 100 µM
- TGI [8]: > 100 µM
- TGI [9]: > 100 µM

SMILES: CCN(CC)Cc1cc(Nc2c3ccccc3nc3c2[nH]c2ccccc23)cc(CN(CC)CC)c1O
- TGI [10]: 2.01 µM
- TGI [2]: 2.62 µM
- TGI [3]: 3.02 µM
- TGI [4]: 3.12 µM
- TGI [5]: 3.24 µM
- TGI [6]: 4.73 µM
- TGI [7]: 1.81 µM
- TGI [8]: 2.75 µM
- TGI [9]: 2.97 µM

SMILES: CN(C)CCNc1nc2ccccc2c2c1CCCC2
- TGI [10]: 31 µM
- TGI [2]: > 100 µM
- TGI [3]: 31.1 µM
- TGI [4]: > 100 µM
- TGI [5]: 32.5 µM
- TGI [6]: > 100 µM
- TGI [7]: > 100 µM
- TGI [8]: > 100 µM
- TGI [9]: 56.3 µM

SMILES: C=C1CCCC2[C@](C)(CC3=C(Cl)C(=O)C=C(OC)C3=O)C(C)CC[C@]12C (stereo partly drawn)
- TGI [1]: 13.6 µM
- TGI [10]: 19.4 µM
- TGI [2]: 13.1 µM
- TGI [3]: 12.7 µM
- TGI [4]: 5.06 µM
- TGI [5]: 13.5 µM
- TGI [6]: 11.6 µM
- TGI [7]: 14.2 µM
- TGI [8]: 6.64 µM

SMILES: Cc1ccc(S(=O)(=O)CN2C(=O)C(c3ccccc3)(c3ccccc3)C23OC(c2ccc(Cl)cc2)=CC3=O)cc1 (stereo not drawn)
- TGI [10]: > 10 µM
- TGI [2]: > 10 µM
- TGI [3]: > 10 µM
- TGI [4]: > 10 µM
- TGI [5]: > 10 µM
- TGI [6]: > 10 µM
- TGI [7]: > 10 µM
- TGI [8]: > 10 µM
- TGI [9]: > 10 µM

SMILES: COc1cc(/C=C2/SC(c3ccccc3)N(Cc3ccccc3)C2=O)cc(OC)c1OC (stereo not drawn)
- TGI [1]: 45.1 µM
- TGI [10]: > 100 µM
- TGI [2]: > 100 µM
- TGI [3]: > 100 µM
- TGI [4]: > 100 µM
- TGI [5]: > 100 µM
- TGI [6]: > 100 µM
- TGI [7]: > 100 µM
